Measurements as given in ChEMBL document CHEMBL5724914, “Linking interpersonal differences in gut microbiota composition and drug biotransformation activity” (2024).

How the values were obtained:
[1] = The drug is tested on Z-028 corresponding to mouse gut metagenome with ENA study accession number: PRJEB37062 and ENA sample accession number: ERS12561827 for biotransformation under anaerobic condition. The drug concentrations were measured over 9 timepoints collected between 0 and 24 hours of incubation by liquid-chromatography-coupled mass spectrometry (LC–MS); settings: 2 µM
[2] = The drug is tested on Z-027 corresponding to metagenome with ENA study accession number: PRJEB37062 and ENA sample accession number: ERS12561826 for biotransformation under anaerobic condition. The drug concentrations were measured over 9 timepoints collected between 0 and 24 hours of incubation by liquid-chromatography-coupled mass spectrometry (LC–MS); settings: 2 µM
[3] = The drug is tested on Z-025 corresponding to rabbit gut metagenome with ENA study accession number: PRJEB37062 and ENA sample accession number: ERS12561824 for biotransformation under anaerobic condition. The drug concentrations were measured over 9 timepoints collected between 0 and 24 hours of incubation by liquid-chromatography-coupled mass spectrometry (LC–MS); settings: 2 µM
[4] = The drug is tested on Z-020 corresponding to rabbit gut metagenome with ENA study accession number: PRJEB37062 and ENA sample accession number: ERS12561819 for biotransformation under anaerobic condition. The drug concentrations were measured over 9 timepoints collected between 0 and 24 hours of incubation by liquid-chromatography-coupled mass spectrometry (LC–MS); settings: 2 µM
[5] = The drug is tested on Z-019 corresponding to rat gut metagenome with ENA study accession number: PRJEB37062 and ENA sample accession number: ERS12561818 for biotransformation under anaerobic condition. The drug concentrations were measured over 9 timepoints collected between 0 and 24 hours of incubation by liquid-chromatography-coupled mass spectrometry (LC–MS); settings: 2 µM
[6] = The drug is tested on Z-017 corresponding to mouse gut metagenome with ENA study accession number: PRJEB37062 and ENA sample accession number: ERS12561816 for biotransformation under anaerobic condition. The drug concentrations were measured over 9 timepoints collected between 0 and 24 hours of incubation by liquid-chromatography-coupled mass spectrometry (LC–MS); settings: 2 µM
[7] = The drug is tested on Z-009 corresponding to pig gut metagenome with ENA study accession number: PRJEB37062 and ENA sample accession number: ERS12561809 for biotransformation under anaerobic condition. The drug concentrations were measured over 9 timepoints collected between 0 and 24 hours of incubation by liquid-chromatography-coupled mass spectrometry (LC–MS); settings: 2 µM
[8] = The drug is tested on Z-007 corresponding to rat gut metagenome with ENA study accession number: PRJEB37062 and ENA sample accession number: ERS12561807 for biotransformation under anaerobic condition. The drug concentrations were measured over 9 timepoints collected between 0 and 24 hours of incubation by liquid-chromatography-coupled mass spectrometry (LC–MS); settings: 2 µM
[9] = The drug is tested on Z-006 corresponding to mouse gut metagenome with ENA study accession number: PRJEB37062 and ENA sample accession number: ERS12561806 for biotransformation under anaerobic condition. The drug concentrations were measured over 9 timepoints collected between 0 and 24 hours of incubation by liquid-chromatography-coupled mass spectrometry (LC–MS); settings: 2 µM
[10] = The drug is tested on Z-005 corresponding to metagenome with ENA study accession number: PRJEB37062 and ENA sample accession number: ERS12561805 for biotransformation under anaerobic condition. The drug concentrations were measured over 9 timepoints collected between 0 and 24 hours of incubation by liquid-chromatography-coupled mass spectrometry (LC–MS); settings: 2 µM
[11] = The drug is tested on WLS-350 corresponding to human gut metagenome with ENA study accession number: PRJEB37062 and ENA sample accession number: ERS12561789 for biotransformation under anaerobic condition. The drug concentrations were measured over 9 timepoints collected between 0 and 24 hours of incubation by liquid-chromatography-coupled mass spectrometry (LC–MS); settings: 2 µM
[12] = The drug is tested on WLS-086 corresponding to human gut metagenome with ENA study accession number: PRJEB37062 and ENA sample accession number: ERS12561752 for biotransformation under anaerobic condition. The drug concentrations were measured over 9 timepoints collected between 0 and 24 hours of incubation by liquid-chromatography-coupled mass spectrometry (LC–MS); settings: 2 µM
[13] = The drug is tested on WLS-073 corresponding to human gut metagenome with ENA study accession number: PRJEB37062 and ENA sample accession number: ERS12561749 for biotransformation under anaerobic condition. The drug concentrations were measured over 9 timepoints collected between 0 and 24 hours of incubation by liquid-chromatography-coupled mass spectrometry (LC–MS); settings: 2 µM
[14] = human gut metagenome, 24 h, 2 µM
[15] = human gut metagenome, 24 h, 2 µM; remark: listed apart in the source
[16] = human gut metagenome, 24 h, 2 µM; remark: listed apart in the source
[17] = human gut metagenome, 24 h, 2 µM; remark: listed apart in the source
[18] = human gut metagenome, 24 h, 2 µM; remark: listed apart in the source
[19] = human gut metagenome, 24 h, 2 µM; remark: listed apart in the source
[20] = human gut metagenome, 24 h, 2 µM; remark: listed apart in the source
Also: call rule not given here.

Row | Compound | Bacterial Biotransformation [1] | Bacterial Biotransformation [2] | Bacterial Biotransformation [3] | Bacterial Biotransformation [4] | Bacterial Biotransformation [5] | Bacterial Biotransformation [6] | Bacterial Biotransformation [7] | Bacterial Biotransformation [8] | Bacterial Biotransformation [9] | Bacterial Biotransformation [10] | Bacterial Biotransformation [11] | Bacterial Biotransformation [12] | Bacterial Biotransformation [13] | Bacterial Biotransformation [14] | Bacterial Biotransformation [15] | Bacterial Biotransformation [16] | Bacterial Biotransformation [17] | Bacterial Biotransformation [18] | Bacterial Biotransformation [19] | Bacterial Biotransformation [20]
1 | CC(C)c1c(CN(C)C(C)Cc2ccccc2)n(C)n(-c2ccccc2)c1=O (stereo not given) [FAMPROFAZONE] | Compound NOT metabolized | Compound metabolized | Compound NOT metabolized | Compound NOT metabolized | Compound NOT metabolized | Compound NOT metabolized | Compound metabolized | Compound metabolized | Compound metabolized | Compound metabolized | Compound metabolized | Compound metabolized | Compound metabolized | Compound metabolized | Compound metabolized | Compound metabolized | Compound metabolized | Compound metabolized | Compound NOT metabolized | Compound metabolized
2 | COc1ccc(CN2CCNCC2)c(OC)c1OC.Cl.Cl [TRIMETAZIDINE DIHYDROCHLORIDE] | Compound NOT metabolized | Compound NOT metabolized | Compound NOT metabolized | Compound NOT metabolized | Compound NOT metabolized | Compound NOT metabolized | Compound NOT metabolized | Compound NOT metabolized | Compound NOT metabolized | Compound NOT metabolized | Compound NOT metabolized | Compound NOT metabolized | Compound NOT metabolized | Compound NOT metabolized | Compound NOT metabolized | Compound NOT metabolized | Compound NOT metabolized | Compound NOT metabolized | Compound NOT metabolized | Compound NOT metabolized
3 | COc1ccnc(C[S+]([O-])c2nc3ccc(OC(F)F)cc3[nH]2)c1OC (stereo not given) [PANTOPRAZOLE] | Compound metabolized | Compound metabolized | Compound metabolized | Compound metabolized | Compound metabolized | Compound metabolized | Compound NOT metabolized | Compound NOT metabolized | Compound metabolized | Compound NOT metabolized | Compound metabolized | Compound metabolized | Compound metabolized | Compound metabolized | Compound metabolized | Compound metabolized | Compound metabolized | Compound metabolized | Compound metabolized | Compound metabolized
4 | CCOC(=O)[C@H](CCc1ccccc1)N[C@@H](C)C(=O)N1Cc2ccccc2C[C@H]1C(=O)O | Compound NOT metabolized | Compound NOT metabolized | Compound NOT metabolized | Compound NOT metabolized | Compound NOT metabolized | Compound NOT metabolized | Compound NOT metabolized | Compound NOT metabolized | Compound NOT metabolized | Compound NOT metabolized | Compound NOT metabolized | Compound metabolized | Compound metabolized | Compound NOT metabolized | Compound metabolized | Compound NOT metabolized | Compound NOT metabolized | Compound metabolized | Compound metabolized | Compound metabolized
5 | CC1=C(CC(=O)O)c2cc(F)ccc2/C1=C\c1ccc([S+](C)[O-])cc1 (stereo not given) | Compound NOT metabolized | Compound NOT metabolized | Compound NOT metabolized | Compound NOT metabolized | Compound NOT metabolized | Compound NOT metabolized | Compound NOT metabolized | Compound NOT metabolized | Compound NOT metabolized | Compound NOT metabolized | Compound metabolized | Compound metabolized | Compound metabolized | Compound metabolized | Compound metabolized | Compound metabolized | Compound metabolized | Compound metabolized | Compound metabolized | Compound metabolized
